From paper PMC8901748, “A novel prostaglandin E receptor 4 (EP4) small molecule antagonist induces articular cartilage regeneration” (Cell Discovery, 2022) come the findings set out here.

The subject of data set [1] is Sox9 promoter-Luc in ATDC5 cells. Put plainly: Sox9 promoter-Luc luciferase reporter assay. Type of data set: cell-based, mouse. As to conditions: 6 h. The procedure: (§1) Six firefly luciferase reporters were used in the Luciferase assay, including CRE-Luc (PathDetect CRE cis-Reporting System; Stratagene, La Jolla CA) driven by a basic promoter (TATA box) plus four repeats of CRE; Sox9 promoter-Luc contains human SOX9 proximal promoter region (−1034 bp to +67 bp)[45]; 4 × 48-p89-Luc, mouse Col2a1 minimal promoter. AP-1-Luc, Nf-κb-Luc, STAT-Luc were obtained from Stratagene. Chondrocytes were cultured in 24-well plates and 300 ng firefly luciferase reporter constructs were transiently transfected using transfection reagent TransExellent-DNA (Cenji Biotech Inc, China) following manufacturer’s instruction, and 15 ng of the Copia-Renilla luciferase reporter was co-transfected as a normalization control. Cells were treated with the indicated reagents for 48 h after transfection. The Dual-Luciferase measurements were performed in triplicate using the Luciferase assay kit (Promega) and a LUMIstar Omega luminometer (BMG Labtech, Mornington, Australia).
In general terms: A reporter such as luciferase makes a cellular process visible.

Data set [2] in a line: Preliminary pharmacokinetic studies in CD1 mice. The data set is classed as in vivo. The method, then:
To evaluate the preclinical pharmacokinetic (PK) profiles of compound HL-43 and HL-66, 36 male CD1 mice were randomly divided into four groups for PK studies. […] Blood samples were collected at 0.083, 0.25, 0.5, 1, 2, 4, 8, 12, and 24 h after administration (n = 3). Then the whole blood was centrifuged at 5500 × g for 15 min at 4 °C. After suitable sample preparation, the concentration of HL-43 and HL-66 in plasma sample was determined by Agilent HPLC-MS/MS system (Agilent Technologies, USA). Pharmacokinetic parameters were calculated by WinNonlin software version 7.0 based on non-compartmental analysis (Pharsight Corporation, Mountain View, USA). Mean plasma concentration-time curves were plotted by GraphPad Prism 7.0 (GraphPad Software Inc., CA, USA).

Data set [3] deals with mouse femoral head cartilage explants. Briefly: Mouse femoral head cartilage explant culture. As to conditions: 1 ng/ml IL-1β, 48 h. Type of data set: cell-based.
The subject of a further data set is gastrointestinal tract. Put plainly: Gastrointestinal tract toxicity (data not shown). As to conditions: compared to Celecoxib. The data set is classed as in vivo.
The subject of data set [4] is human articular cartilage explants. Briefly: Human articular cartilage explant culture (S.O. staining, DMMB assay, qRT-PCR, immunohistochemistry). Type of data set: cell-based. An excerpt:
Human articular cartilage explants of OA patients undergoing total knee replacement surgery were collected (3 mm × 3 mm), with the approval of the Human Ethics Committee of Shanghai Sixth People’s Hospital (2021-048). The full thickness cartilage tissue samples were harvested from tibia plateau avoiding subchondral bone. We control the quality of the explants according to the principle mentioned below. (1) The human articular cartilage explants were harvested from the relatively intact region of the tibia plateau. (2) The explants from different patients were cut from the same position of tibia plateau avoiding subchondral bone. (3) The explants were cut in the size of 3 mm × 3 mm for the DMMB assay and the S.O. staining. (4) To avoid inter-patient and intra-patient sample heterogeneous, explants used within the same drug experiment (vehicle and treatment) must be collected in locations in close proximity and from the same patient. Each explant in the groups that treated with the same drug was from the same patient. The cartilage explants for Safranin-O/Fast-green (S.O.) staining and immunofluorescence were fixed in 4% paraformaldehyde (PFA) (wt/vol) overnight at 4 °C, embedded in paraffin, sliced (7 μm) and mounted on positively charged slides. The cartilage explants (3 mm × 3 mm) for DMMB assay and S.O. staining were harvested and placed in 24-well plates and cultured in 1 ml of serum-free F12 culture media for 24 h. n ≥ 4 patients were assessed. The media was then replaced with F12 culture media containing serum, added 1 ng/ml IL-1β, Celecoxib, Grapiprant, HL-43, and explants were cultured for a further 7 days. The culture media was collected for the release of glycosaminoglycans. To quantify GAGs, media were mixed with DMMB in formate buffer and absorbance at 535 nm was determined using a Spectramax plate reader (Molecular Devices, Sunnyvale, CA). […] We calculated the proteoglycan staining area using Image J with a region of interest of a 1 × 1 mm square, drawn at the edge of the cartilage surface under 10× objective. […]
Background: Quantitative PCR measures a nucleic acid by following its amplification.

Data set [5] deals with 4 × 48-p89-Luc (Sox9 binding enhancer, Col2a1 minimal promoter) in ATDC5 cells. Put plainly: 4 × 48-p89-Luc luciferase reporter assay. Type of data set: cell-based, mouse. The procedure:
as §1

Data set [6] relates to cAMP in primary chondrocytes. Briefly: cAMP assay. The data set is classed as cell-based. Particulars: primary mouse chondrocytes, 2 h. The procedure:
The cAMP concentration of primary chondrocytes was detected by cAMP dynamic kit (Cisbio, France) following the manufacturer’s instructions. cAMP standards were diluted according to the kit instructions. Cells were treated with HL-43 for 2 h and the relative fold change of cAMP was determined by comparing with the cAMP standard curve.

The next data set concerns AP-1-Luc in ATDC5 cells. Put plainly: AP-1-Luc luciferase reporter assay. Type of data set: cell-based, mouse. As to conditions: 2 ng/ml IL-1β, 30 μM HL-43, 6 h. The procedure: as §1

The structures appear in SMILES notation.

For orientation: Cmax means the peak of the concentration-time curve. Take `C[C@H](NC(=O)c1c(-c2ccccc2)nnn1CCOc1ccc(F)cc1)c1ccc(C(=O)O)cc1` [HL-43]: the “Sox9 promoter-Luc activity after IL-1β” value in data set [1] (2 ng/ml IL-1β) is recorded as “partially rescued the Sox9 transcriptional expression in a dose-dependent manner”. The “Sox9 promoter-Luc activity” value in data set [1] (without IL-1β) is reported as “increased by HL-43 stimulation in a dose-dependent manner”. In addition, in data set [2] (I.V. (5 mg/kg)), the “AUC0-∞” value was found to be 917.2 ng·h/mL, the C0 is 1613.6 ng/mL, the CL is 18.3 mL/min/kg and the Vd worked out at 6.3 L/kg. The compound further returned a t1/2 in data set [2] (I.V. (5 mg/kg)) of 4.0 h. In addition, in data set [2] (P.O. (1 mg/kg)), the “AUC0-∞” value turned out to be 1076.1 ng·h/mL, the CL stood at 76.7 mL/min/kg, the highest concentration (Cmax) amounted to 270.2 ng/mL and the Vd worked out at 21.8 L/kg. For the same compound, in data set [2] (P.O. (1 mg/kg)), the t1/2 is 3.3 h. For the same compound, the Bioavailability in data set [2] (oral) was 23.7%. In data set [3], the Mmp13 immunohistochemistry staining result was “reduced immunohistochemistry staining for the catabolic marker Mmp13” and the “Proteoglycan content by S.O. staining” value is “favorable effect on the proteoglycan content”. In addition, the “Toxicity in gastrointestinal tract” value in the data set with gastrointestinal tract is on record as “lower toxicity”. Besides, the “Percentage area of proteoglycan by S.O. staining” value in data set [4] (human OA cartilage explants, 1 week) is on record as “increased with HL-43 treatment in a dose-dependent manner”. Further, the “Immunohistochemistry of ACAN, SOX9, MMP13, COLX” value in data set [4] (human cartilage explants) is “inducted anabolic factors (ACAN and SOX9), and suppressed catabolic factor (MMP13), and hypertrophic marker (COLX)”. In addition, the “Expression of anabolic factors (COL2A1, ACAN, SOX9) and catabolic factor (MMP13), qRT-PCR” value in data set [4] (human explants, 1 ng/ml IL-1β, 24 h, Celecoxib 10 μM, Grapiprant and HL-43 30 μM) is recorded as “best efficacy”. Also, the “4 × 48-p89-Luc reporter activity” value in data set [5] is recorded as “dose-dependently increased”. Moreover, the cAMP production result in data set [6] is recorded as “dose-dependently induced cAMP production”. Besides, the “AP-1 luciferase reporter activity” value in the data set on AP-1-Luc in ATDC5 cells is “not AP-1 or NF-κB”.
